Literature values as cited in patent US11701406B2 (The Board of Trustees of the Leland Stanford Junior …, priority 2017, dated 2023).

Biological target: T1, NEDD8 activating enzyme (NAE) (Homo sapiens, UniProt Q8TBC4)
T1 sequence (Q8TBC4 2-463 limits assumed): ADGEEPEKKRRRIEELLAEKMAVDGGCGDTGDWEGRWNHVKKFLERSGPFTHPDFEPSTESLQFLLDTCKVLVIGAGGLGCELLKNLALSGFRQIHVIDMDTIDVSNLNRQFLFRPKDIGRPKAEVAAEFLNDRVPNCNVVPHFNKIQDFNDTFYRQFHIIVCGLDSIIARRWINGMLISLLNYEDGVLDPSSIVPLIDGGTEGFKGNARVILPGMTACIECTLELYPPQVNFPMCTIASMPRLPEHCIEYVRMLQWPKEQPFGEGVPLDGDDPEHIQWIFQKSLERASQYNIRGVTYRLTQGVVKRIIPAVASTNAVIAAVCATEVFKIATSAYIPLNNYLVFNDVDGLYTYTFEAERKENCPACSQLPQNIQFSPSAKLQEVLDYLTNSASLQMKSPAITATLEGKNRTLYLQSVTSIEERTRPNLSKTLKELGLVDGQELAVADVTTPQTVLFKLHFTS
T1 sequence (Q13564 2-534 partner limits assumed): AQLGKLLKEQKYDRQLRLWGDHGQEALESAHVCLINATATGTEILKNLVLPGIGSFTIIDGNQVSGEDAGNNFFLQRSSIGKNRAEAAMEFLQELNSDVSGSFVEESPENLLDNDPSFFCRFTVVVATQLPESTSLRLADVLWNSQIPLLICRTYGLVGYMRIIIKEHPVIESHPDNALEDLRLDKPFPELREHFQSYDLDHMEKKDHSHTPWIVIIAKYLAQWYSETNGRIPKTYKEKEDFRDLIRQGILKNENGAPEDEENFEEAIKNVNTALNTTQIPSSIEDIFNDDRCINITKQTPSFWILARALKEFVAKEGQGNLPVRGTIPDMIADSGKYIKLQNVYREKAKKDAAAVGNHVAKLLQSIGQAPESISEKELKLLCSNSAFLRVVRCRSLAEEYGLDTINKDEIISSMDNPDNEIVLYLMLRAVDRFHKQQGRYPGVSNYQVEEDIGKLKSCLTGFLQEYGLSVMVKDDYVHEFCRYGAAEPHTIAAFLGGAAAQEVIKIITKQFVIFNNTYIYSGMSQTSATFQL
Settings: read-out: IC50 (Activity, Inhibitors of NAE)

Row | IC50 | Molecule
1 | 100 nM | Nc1ccc(SCC(=O)Nc2ccc3nc(NC(=O)c4ccc(C(F)(F)F)cc4)sc3c2)cc1
2 | 9000 nM | Clc1ccc(CCNC2CCN(Cc3ccccc3)CC2)c(Cl)c1 [M22]
3 | 20 nM | CN1CCOc2c1ccc(F)c2C#Cc1cn([C@@H]2C[C@@H](CCS(N)(=O)=O)[C@@H](O)[C@H]2O)c2ncnc(N)c12 [TAS 2]

More lines, now with the values behind:

Row | Molecule | IC50
4 | CN1CCOc2c1ccc(F)c2C#Cc1cn([C@@H]2O[C@@H](CCS(N)(=O)=O)[C@@H](O)[C@H]2O)c2ncnc(N)c12 [TAS 1] | 1 nM
5 | MLN7243 | 1 nM
6 | CCN1CCN(C(=O)N[C@@H](C(=O)N[C@@H]2C(=O)N3C2SC(C)(C)[C@@H]3C(=O)O)c2ccccc2)C(=O)C1=O (stereo partly drawn) [Piperacillin] | 1000 nM
